Patent US20230085307A1, “PYRIDAZINONE COMPOUND AND HERBICIDE” (NISSAN CHEMICAL CORPORATION, priority 2019, published 2023)

Columns and labels:
late watergrass [1] = assay: Test Example 1: herbicidal activity, application before weed generation under submerged conditions (Table 16, symbol A); format: in vivo, late watergrass (Echinochloa oryzicola); conditions: 320 g/ha applied herbicide
Summary of the method: (§1)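 Alluvial soil was flooded to 4 cm depth, weed seeds were sown mixed and 2.5-leaf rice seedlings were transplanted. On sowing day, the compound's emulsion, diluted in water to a set dose, was applied to the water surface. Plants grew at 25–30 °C and were scored 0–5 after three weeks.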

Japanese bulrush [2] = assay: Test Example 1: herbicidal activity, application before weed generation under submerged conditions (Table 16, symbol B); format: in vivo, Japanese bulrush (Schoenoplectus juncoides); conditions: 320 g/ha applied herbicide
Summary of the method: as §1

oval-leafed pondweed [3] = assay: Test Example 1: herbicidal activity, application before weed generation under submerged conditions (Table 16, symbol C); format: in vivo, oval-leafed pondweed (Monochoria vaginalis); conditions: 320 g/ha applied herbicide
Summary of the method: as §1

late watergrass [4] = assay: Test Example 2: herbicidal activity, application during weed generation under submerged conditions (Table 17, symbol A); format: in vivo, late watergrass (Echinochloa oryzicola); conditions: AAH 320 g/ha; application during weed generation, submerged conditions
Summary of the method: (§2)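 3-wk visual-criteria score after one water-surface dose. Emulsion formulation, water-diluted to set rate; applied at 1–2 leaf stage; alluvial soil, 4 cm standing water; seeds co-sown; greenhouse 25–30° C.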

Japanese bulrush [5] = assay: Test Example 2: herbicidal activity, application during weed generation under submerged conditions (Table 17, symbol B); format: in vivo, Japanese bulrush (Schoenoplectus juncoides); conditions: AAH 320 g/ha; application during weed generation, submerged conditions
Summary of the method: as §2

oval-leafed pondweed [6] = assay: Test Example 2: herbicidal activity, application during weed generation under submerged conditions (Table 17, symbol C); format: in vivo, oval-leafed pondweed (Monochoria vaginalis); conditions: AAH 320 g/ha; application during weed generation, submerged conditions
Summary of the method: as §2

barnyard grass [7] = assay: Test Example 3: herbicidal effect by foliage application, Wagner pot (Table 18, symbol H); format: in vivo, barnyard grass (Echinochloa crus-galli); conditions: amount of applied herbicide 320 g/ha
Summary of the method: (§3)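 Plants were sown in alluvial soil held under 0.1–0.5 cm standing water and grown 14 days in a greenhouse at 25–30 °C. An emulsifiable formulation, water-diluted to the set dose, was then sprayed onto the foliage, and effects were scored three weeks later using previously defined criteria.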

Chinese sprangletop = assay: Test Example 3: herbicidal effect by foliage application, Wagner pot (Table 18, symbol D); format: in vivo, chinese sprangletop (Leptochloa chinensis); conditions: amount of applied herbicide 320 g/ha
Summary of the method: as §3

rice flat sedge = assay: Test Example 3: herbicidal effect by foliage application, Wagner pot (Table 18, symbol E); format: in vivo, rice flat sedge (Cyperus iria); conditions: amount of applied herbicide 320 g/ha
Summary of the method: as §3

southern crabgrass = assay: Test Example 4: herbicidal effect by soil treatment (Table 19, symbol F); format: in vivo, southern crabgrass (Digitaria ciliaris); conditions: amount of applied herbicide 320 g/ha
Summary of the method: (§4)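 Soil-surface application: an emulsion agent diluted with water to the predetermined dose is sprayed uniformly over seeds lying under roughly 1.5 cm of sterilized diluvial soil. Boxes stay in a greenhouse at 25° C. to 30° C. Three weeks later, each species is graded on previously defined criteria.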

green foxtail = assay: Test Example 4: herbicidal effect by soil treatment (Table 19, symbol G); format: in vivo, green foxtail (Setaria viridis); conditions: amount of applied herbicide 320 g/ha
Summary of the method: as §4

barnyard grass [8] = assay: Test Example 4: herbicidal effect by soil treatment (Table 19, symbol H); format: in vivo, barnyard grass (Echinochloa crus-galli); conditions: amount of applied herbicide 320 g/ha
Summary of the method: as §4

wild oat = assay: Test Example 4: herbicidal effect by soil treatment (Table 19, symbol I); format: in vivo, wild oat (Avena fatua); conditions: amount of applied herbicide 320 g/ha
Summary of the method: as §4

blackgrass = assay: Test Example 4: herbicidal effect by soil treatment (Table 19, symbol J); format: in vivo, blackgrass (Alopecurus myosuroides); conditions: amount of applied herbicide 320 g/ha
Summary of the method: as §4

Italian ryegrass = assay: Test Example 4: herbicidal effect by soil treatment (Table 19, symbol K); format: in vivo, Italian ryegrass (Lolium multiflorum); conditions: amount of applied herbicide 320 g/ha
Summary of the method: as §4

windgrass = assay: Test Example 4: herbicidal effect by soil treatment (Table 19, symbol L); format: in vivo, windgrass (Apera spica-venti); conditions: amount of applied herbicide 320 g/ha
Summary of the method: as §4

velvetleaf = assay: Test Example 4: herbicidal effect by soil treatment (Table 19, symbol M); format: in vivo, velvetleaf (Abutilon theophrasti); conditions: amount of applied herbicide 320 g/ha
Summary of the method: as §4

redroot pigweed = assay: Test Example 4: herbicidal effect by soil treatment (Table 19, symbol N); format: in vivo, redroot pigweed (Amaranthus retroflexus); conditions: amount of applied herbicide 320 g/ha
Summary of the method: as §4

lambsquarters = assay: Test Example 4: herbicidal effect by soil treatment (Table 19, symbol O); format: in vivo, lambsquarters (Chenopodium album); conditions: amount of applied herbicide 320 g/ha
Summary of the method: as §4

chickweed = assay: Test Example 4: herbicidal effect by soil treatment (Table 19, symbol P); format: in vivo, common chickweed (Stellaria media); conditions: amount of applied herbicide 320 g/ha
Summary of the method: as §4

persian speedwell = assay: Test Example 4: herbicidal effect by soil treatment (Table 19, symbol R); format: in vivo, Persian speedwell (Veronica persica); conditions: amount of applied herbicide 320 g/ha
Summary of the method: as §4

Question: Which results are given for Cc1nn(C)c(=O)c(-c2c(-c3ccc(F)c(Cl)c3)sc3ccc(F)cc23)c1O [2-352]?
Answer: Herbicidal effect on A: late watergrass (grade 0-5) (late watergrass [1]): 3 (Herbicidal rate of 40% or more and less than 70%); Herbicidal effect on B: Japanese bulrush (grade 0-5) (Japanese bulrush [2]): 2 (Herbicidal rate of 20% or more and less than 40%); Herbicidal effect on C: oval-leafed pondweed (grade 0-5) (oval-leafed pondweed [3]): 2 (Herbicidal rate of 20% or more and less than 40%); herbicidal effect rating, A: late watergrass (late watergrass [4]): 0 (Herbicidal rate of 5% or less (almost no effect)); herbicidal effect rating, B: Japanese bulrush (Japanese bulrush [5]): 2 (Herbicidal rate of 20% or more and less than 40%); herbicidal effect rating, C: oval-leafed pondweed (oval-leafed pondweed [6]): 0 (Herbicidal rate of 5% or less (almost no effect)); herbicidal effect on H: barnyard grass (barnyard grass [7]): 5 (Herbicidal rate of 90% or more (almost completely withered)); herbicidal effect on D: Chinese sprangletop (Chinese sprangletop): 5 (Herbicidal rate of 90% or more (almost completely withered)); herbicidal effect on E: rice flat sedge (rice flat sedge): 5 (Herbicidal rate of 90% or more (almost completely withered)); herbicidal effect, F: southern crabgrass (southern crabgrass): 2 (Herbicidal rate of 20% or more and less than 40%); herbicidal effect, G: green foxtail (green foxtail): 4 (Herbicidal rate of 70% or more and less than 90%); herbicidal effect, H: barnyard grass (barnyard grass [8]): 3 (Herbicidal rate of 40% or more and less than 70%); herbicidal effect, I: wild oat (wild oat): 0 (Herbicidal rate of 5% or less (almost no effect)); herbicidal effect, J: blackgrass (blackgrass): 0 (Herbicidal rate of 5% or less (almost no effect)); herbicidal effect, K: Italian ryegrass (Italian ryegrass): 4 (Herbicidal rate of 70% or more and less than 90%); herbicidal effect, L: windgrass (windgrass): 0 (Herbicidal rate of 5% or less (almost no effect)); herbicidal effect, M: velvetleaf (velvetleaf): 3 (Herbicidal rate of 40% or more and less than 70%); herbicidal effect, N: redroot pigweed (redroot pigweed): 5 (Herbicidal rate of 90% or more (almost completely withered)); herbicidal effect, O: lambsquarters (lambsquarters): 4 (Herbicidal rate of 70% or more and less than 90%); herbicidal effect, P: chickweed (chickweed): 3 (Herbicidal rate of 40% or more and less than 70%); herbicidal effect, R: persian speedwell (persian speedwell): 4 (Herbicidal rate of 70% or more and less than 90%)
